Experimental data from BindingDB's records for doi:10.1021/jm000497n (Welfide, 2001).

Target: Chymotrypsin A (Bos taurus)
Experiment: In vitro inhibitory activity was determined against bovine pancreas chymotrypsin

| Ki | SMILES |
| --- | --- |
| 3280 nM | Nc1cnc(-c2ccc(F)cc2)n(CC(=O)NC(Cc2ccccc2)C(=O)C(F)(F)C(=O)NCc2ccccc2)c1=O (centres undefined) [4-{2-[5-Amino-2-(4-fluoro-phenyl)-6-oxo-6H-pyrimidin-1-yl]-acetylamino}-2,2-difluoro-3-oxo-5-phenyl-pentanoic acid benzylamide] |
| 1920 nM | Cc1cccc(-c2ncc(N)c(=O)n2CC(=O)NC(Cc2ccccc2)C(=O)C(F)(F)C(=O)NCc2ccccc2)c1 (centres undefined) [4-[2-(5-Amino-6-oxo-2-m-tolyl-6H-pyrimidin-1-yl)-acetylamino]-2,2-difluoro-3-oxo-5-phenyl-pentanoic acid benzylamide] |
| 1430 nM | Cc1cccc(-c2ncc(N)c(=O)n2CC(=O)NC(Cc2ccccc2)C(=O)C(F)(F)C(=O)NCCC(=O)O)c1 (centres undefined) [3-{4-[2-(5-Amino-6-oxo-2-m-tolyl-6H-pyrimidin-1-yl)-acetylamino]-2,2-difluoro-3-oxo-5-phenyl-pentanoylamino}-propionic acid] |
| 1440 nM | Cc1cccc(-c2ncc(N)c(=O)n2CC(=O)NC(Cc2ccccc2)C(=O)C(F)(F)C(=O)NCC(N)=O)c1 (centres undefined) [4-[2-(5-Amino-6-oxo-2-m-tolyl-6H-pyrimidin-1-yl)-acetylamino]-2,2-difluoro-3-oxo-5-phenyl-pentanoic acid carbamoylmethyl-amide] |
